In patent US20100113613A1, “CYCLOHEXANE POLYALCOHOL FORMULATION FOR TREATMENT OF DISORDERS OF PROTEIN AGGREGATION” (WARATAH PHARMACEUTICALS, priority 2006, published 2010):

Legend:
Aβ42 = molecular target: T1, Aβ42 (Homo sapiens, UniProt P05067); experiment: TgCRND8 dose response, dosed 5-6 months once daily: Aβ42 in brain homogenates by ELISA; assay type: in vivo; details: CRND8 mice 5-6 months, oral
T1 construct: from tissue; host or cells: brain homogenate (and plasma) of TgCRND8 transgenic mice
Protocol: Dose response was further examined in animals dosed from 5-6 months of age. Disease is more advanced at this later time point, so there may be greater clinical relevance. The dose levels investigated were 5, 10 and 30 mg/kg or vehicle, once daily. Accumulation of Aβ42 was assessed. • Reduction in amyloid accumulation in the brain: Levels of Aβ42 in brain homogenates were assessed by ELISA.

TgCRND8 mice = experiment: Morris Water Maze, TgCRND8 mice dosed 3 to 4 months, 3.3-30 mg/kg/day (Example 3); assay type: in vivo
Protocol: 8 mice were treated with scyllo-cyclohexanehexyl by oral gavage from 3 to 4 months. […] Animals were assessed at 4 months of age. Behavioural tests: Morris Water Maze testing was performed as previously described (Janus C, et al., 2000, Nature 408:979-982). After non-spatial pre-training, mice underwent place discrimination training for 5 days with 4-trials per day. Data were subjected to a repeated measures analysis of variance (ANOVA) with treatment (untreated, scyllo-cyclohexanehexyl) as the between subject factor. Cerebral plaque burden. Brains were removed and one hemisphere was fixed in 4% paraformaldehyde and embedded in paraffin wax in the mid sagittal plane. To generate sets of systematic uniform random sections, 5 μm serial sections were collected across the entire hemisphere. Sets of sections at 50 μm intervals were used for analyses (10-14 sections/set). Plaques were identified after antigen retrieval with formic acid, and incubation with primary anti-Aβ antibody (Dako M-0872), followed by secondary antibody (Dako StreptABCcomplex/horseradish kit). […] Aβ plaque burden was assessed with Leco IA-3001 image analysis software interfaced with Leica microscope and Hitachi KP-M1U CCD video camera. […] Vascular Aβ burden was defined as Aβ plaques originating from or surrounding blood vessels and was analysed similarly. […] The total swim path length to find the hidden platform is evaluated. […]

T1 sequence (P05067 672-713): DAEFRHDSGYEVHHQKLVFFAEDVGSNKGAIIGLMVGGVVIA

scyllo-inositol [AZD-103]
dose showing maximum effectiveness at reducing plaques (Aβ42): 30 mg/kg/day | maximally efficacious dose level (TgCRND8 mice; Morris Water Maze, TgCRND8 mice aged 4 months, oral twice daily): 3.3 mg/kg/day | swim path length (Morris Water Maze) after 5 days of assessment vs placebo (TgCRND8 mice; TgCRND8 mice treated 3 to 4 months, all dose levels, p=0.003, 0.008, 0.002 for 3.3, 10 and 30 mg/kg/day): significantly shorter
